US4889941A, “Synthetic flavonoids as inhibitors of leukotrienes and 5-lipoxygenase” (Fisons Corporation, priority 1987, dated 1989)
Structures can show the parent of a compound that is named as a salt. Each block holds one molecule with its values, some of them ahead of it.

Legend:
[1] = system: edema in a rat anaphylaxis test; assay: Rat anaphylaxis test (paw edema after bovine serum albumin challenge); format: in vivo; conditions: for activity in the rat anaphylaxis test: administered as a suspension
Procedure: Groups of 15-20 rats are intraperitoneally sensitized with 500 μg of bovine serum albumin-absorbed alum admixed with 2×10^10 killed Bordetella pertussis vaccine organisms. Fourteen days later, the paw volume is measured using a mercury plethysmometer. Immediately thereafter, the test compound suspended in about 1 ml of 1% Clearjel ("Instant Clearjel", a food grade pregelatinized starch from National Starch and Chemical Corporation, New York, N.Y.) at 100 mg/kg is administered ip and, one hour later, the right hind paw is injected subcutaneously with 100 μg of bovine serum albumin dissolved in 0.1 ml of saline. (In controls, no test compound is suspended in the Clearjel.) The paw volume is remeasured 90 minutes post antigenic challenge to determine the volume increase (Δ V) since the first measurement. The percent inhibition of edema is [formula] The effect of theophylline (90 mg/kg, po) is tested as a positive control.

5-lipoxygenase = target: T1, 5-lipoxygenase (Homo sapiens, UniProt P09917); assay: Inhibition of 5-lipoxygenase (5-HETE formation from arachidonic acid, HPLC); format: biochemical; conditions: arachidonic acid 1 mg/ml, pH 7.4, 6 minutes at 30° C.
T1 sequence (P09917 1-674): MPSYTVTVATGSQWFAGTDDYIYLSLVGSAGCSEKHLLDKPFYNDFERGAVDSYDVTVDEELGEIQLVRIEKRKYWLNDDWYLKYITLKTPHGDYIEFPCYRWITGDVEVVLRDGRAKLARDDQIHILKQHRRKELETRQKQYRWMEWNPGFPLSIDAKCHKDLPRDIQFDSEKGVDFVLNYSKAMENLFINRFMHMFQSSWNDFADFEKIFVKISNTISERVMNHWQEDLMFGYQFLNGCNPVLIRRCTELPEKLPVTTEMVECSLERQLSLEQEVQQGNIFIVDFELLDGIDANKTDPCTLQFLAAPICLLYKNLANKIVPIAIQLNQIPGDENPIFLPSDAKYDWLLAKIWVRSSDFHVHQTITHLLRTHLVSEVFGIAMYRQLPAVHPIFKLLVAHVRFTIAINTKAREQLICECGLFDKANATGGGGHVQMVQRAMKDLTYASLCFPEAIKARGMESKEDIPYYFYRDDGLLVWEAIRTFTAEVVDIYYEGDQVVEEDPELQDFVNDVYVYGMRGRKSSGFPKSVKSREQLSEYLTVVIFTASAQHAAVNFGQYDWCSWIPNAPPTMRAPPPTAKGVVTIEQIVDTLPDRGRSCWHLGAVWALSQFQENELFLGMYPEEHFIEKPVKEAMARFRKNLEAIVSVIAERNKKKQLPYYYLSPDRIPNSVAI
Procedure: Test for Inhibition of 5-Lipoxygenase
This test is based on the procedure of Arai et al., J. Med. Chem., Vol. 26, 72 (1983).
Arachidonic acid in the presence of the enzyme 5-lipoxygenase is converted to 5-hydroxy-eicosatetraenoic acid (5-HETE) through a 2-step process. To assess the activity of a test compound on 5-lipoxygenase activity, a specific concentration of the test compound is added to 1 mg/ml of arachidonic acid in the presence of the appropriate amount of 5-lipoxygenase in a solution of potassium phosphate buffer containing 1 mM CaCl2 at pH 7.4. The reaction is carried out for 6 minutes at 30° C. in a total volume of 500 μl. The reaction is stopped by addition of lM citric acid. The 5-HETE is extracted and quantitated using high performance liquid chromatography. The percent activity is calculated as follows: [formula]

[2] = Solubility in the balanced salts solution of the tissue bath; format: physicochemical; conditions: balanced salts solution of the LTC4 ilial assay
leukotriene C4 (LTC4) = assay: Inhibition of LTC4-induced guinea pig ilial contractions; format: cell-based; conditions: Cavia porcellus, LTC4 6 nanomolar, read-out: percent inhibition of LTC4-induced contraction
Procedure: Test for Inhibition of LTC4 -Induced Guinea Pig Ilial Contractions
The evaluation of potential anti-allergic compounds for antagonism of the in vitro effects of leukotriene C4 (LTC4) is conducted according to the following procedure. Guinea pig ilial strips are obtained from recently killed animals and hung in isolated tissue baths comprising a balanced solution of salts such as Krebs' solution. After allowing for one hour equilibration of the tissue in the bath, the gram tension (G.T.) on one tissue is arbitrarily set at one. LTC4 (6 nanomolar concentration) is then added to the tissue bath. This induces a long, sustained contraction of the tissue that is measured on the strip chart recorder (the G.T. increases to about 2). After the LTC4 -induced contraction has plateaued and remains stable, increasing amounts of the test compound are added to the bath. If the compound is effective, a decrease in the G.T. (Δ G.T.) from the LTC4 -induced value is seen (e.g., from 2 to 1.5). The percent inhibition at each concentration is calculated according to the formula: [formula] Four replicate tissues are run.

SMILES: O=c1cc(-c2ccccc2)oc2cc(OCC(O)CNCC(O)COc3ccccc3)ccc12 (stereo not shown) [Example 11, 7-[3-[3-phenoxy-2-(hydroxypropyl)amino]-2-hydroxypropoxy]flavone Hydrochloride]
solubility in the balanced salts solution [2]: insoluble | activity in the rat anaphylaxis test [1]: active

SMILES: O=c1c(-c2ccccc2)c(-c2ccccc2)oc2cc(OCC(O)CNc3ccccc3)ccc12 (stereo not shown) [Example 19, 3-Phenyl-7-(3-anilino-2-hydroxypropoxy)flavone]
activity in the Rat Anaphylaxis test ([1]; as hydrochloric acid salt): inactive | activity in the Rat Anaphylaxis test ([1]; free base form): active

SMILES: COc1ccc(CCNCC(O)COc2ccc3c(=O)cc(-c4ccccc4)oc3c2)cc1OC (stereo not shown) [Example 1, 7-[3-[(3,4-dimethoxyphenethyl)amino]-2-hydroxypropoxy]flavone Maleate]
inhibition at 10 µM (leukotriene C4 (LTC4); final tissue bath concentration 1×10^-5 M): 94% | inhibition at 1 µM (leukotriene C4 (LTC4); final tissue bath concentration 1×10^-6 M): 52.3% | inhibition at 5 µM (leukotriene C4 (LTC4); final tissue bath concentration 5×10^-6 M): 89.8%

Continued, in another order:

IC50 (5-lipoxygenase): ~90 nM
SMILES: Br.O=c1cc(-c2ccccc2)oc2cc(OCC(O)CNCCc3ccc(O)c(O)c3)ccc12 (stereo not shown) [Example 14, 7-[3-[(3,4-Dihydroxyphenethyl)amino]-2-hydroxypropoxy]flavone Hydrobromide]
percent inhibition of edema ([1]; rat, 100 mg/kg ip in 1% Clearjel, paw volume 90 minutes post antigenic challenge): 63%

solubility in the balanced salts solution [2]: insoluble
SMILES: O=c1c(-c2ccccc2)c(-c2ccccc2)oc2cc(OCC(O)CNCCc3ccccc3)ccc12 (stereo not shown) [Example 18, 3-Phenyl-7-(3-phenethylamino-2-hydroxypropoxy)flavone]
activity in the rat anaphylaxis test [1]: active

solubility in the balanced salts solution [2]: insoluble
SMILES: O=c1cc(-c2ccccc2)oc2cc(OCC(O)CN3CCN(c4ccccc4)CC3)ccc12 (stereo not shown) [Example 12, 7-[3-(N-phenylpiperazinyl)-2-hydroxypropoxy]flavone]
activity in the rat anaphylaxis test [1]: active
